Results: paper PMC6348444, “New Water-Soluble Copper(II) Complexes with Morpholine–Thiosemicarbazone Hybrids: Insights into the Anticancer and Antibacterial Mode of Action” (Journal of Medicinal Chemistry, 2018)

Experiments:
[1] = n-octanol/water distribution coefficient, shake-flask; assay type: physicochemical; conditions: n-octanol/buffered aqueous solution, pH 7.40, UV-vis
Protocol: The titrations were carried out under a nitrogen atmosphere.

A2780 cells = test: Annexin V/PI apoptosis assay; assay type: cell-based, human; conditions: 24 h
Excerpt: To elucidate if observed cytotoxicity of new compounds described in this study was a result of apoptosis induction, we conducted Annexin V/PI apoptosis assay. In brief, fluorochrome-labeled Annexin V reagent is used for detection of membrane phosphatidylserine (PS), which translocates to the cellular surface from the inner side of plasma membrane in the event of early apoptosis. Simultaneously, PI is used for detection of later stages of apoptosis or necrosis, which are characterized by loss of membrane integrity and accumulation of PI inside the cells. […] Results are illustrated in Figure 9. Upon incubation of A2780 cells with increasing concentrations of HL^2 and 2, the dose-dependent increase of apoptotic cells was observed.
A2780 cells were seeded into Cellstar 12-well plates (Greiner Bio-One) at a density of 20 × 10^4 cells/well (1 mL per well). The cells were allowed to resume exponential growth for 24 h and subsequently they were exposed to HL^2 and 2 at different concentrations for 24 h. After the supernatant solution was collected in 1.5 mL microtubes, the cells were washed with 100 μL of trypsin, which was combined with the supernatant. Subsequently, cells were trypsinized with 200 μL of trypsin for 5 min at 37 °C, 5% CO2, washed with 200 μL of PBS, and combined with the supernatant. The cells were centrifuged at 2.5 × 10^3 rpm for 5 min and the pellets were washed once with PBS and resuspended in 500 μL of Annexin V binding buffer and stained with Annexin V-FITC and PI reagents. The fluorescence was immediately analyzed by flow cytometry. The resulting dot blots were acquired from 10 000 events and quantified using Flowjo software (Flowjo LLC, Ashland, OR, USA).

For `[Cl][Cu][S]C(=NN=Cc1ccc(CN2CCOCC2)cn1)Nc1ccccc1` [complex 5, [Cu(L^5)Cl]], the “log D7.4” value [1] was “+1.49 ± 0.06”.
In the case of `CN(C)C(=NN=Cc1ccc(CN2CCOCC2)cn1)[S][Cu][Cl]` [complex 2, [Cu(L^2)Cl]], the apoptotic cells (A2780 cells; A2780, 2IC50 concentration) is reported as 22.5 ± 5.3%, the apoptotic cells (A2780 cells; A2780, 6IC50 concentration) is reported as 24.4 ± 7.8% and the “log D7.4” value [1] is reported as “+0.30 ± 0.01”.
